Test results as given in patent US6500853B1, “Inhibitors of phospholipase enzymes” (Genetics Institute, LLC, priority 1998, dated 2002).
Each block holds one molecule with its values, some of them ahead of it.

Biological target: T1, cPLA2 (Homo sapiens, UniProt P47712)
T1 sequence (P47712 1-749): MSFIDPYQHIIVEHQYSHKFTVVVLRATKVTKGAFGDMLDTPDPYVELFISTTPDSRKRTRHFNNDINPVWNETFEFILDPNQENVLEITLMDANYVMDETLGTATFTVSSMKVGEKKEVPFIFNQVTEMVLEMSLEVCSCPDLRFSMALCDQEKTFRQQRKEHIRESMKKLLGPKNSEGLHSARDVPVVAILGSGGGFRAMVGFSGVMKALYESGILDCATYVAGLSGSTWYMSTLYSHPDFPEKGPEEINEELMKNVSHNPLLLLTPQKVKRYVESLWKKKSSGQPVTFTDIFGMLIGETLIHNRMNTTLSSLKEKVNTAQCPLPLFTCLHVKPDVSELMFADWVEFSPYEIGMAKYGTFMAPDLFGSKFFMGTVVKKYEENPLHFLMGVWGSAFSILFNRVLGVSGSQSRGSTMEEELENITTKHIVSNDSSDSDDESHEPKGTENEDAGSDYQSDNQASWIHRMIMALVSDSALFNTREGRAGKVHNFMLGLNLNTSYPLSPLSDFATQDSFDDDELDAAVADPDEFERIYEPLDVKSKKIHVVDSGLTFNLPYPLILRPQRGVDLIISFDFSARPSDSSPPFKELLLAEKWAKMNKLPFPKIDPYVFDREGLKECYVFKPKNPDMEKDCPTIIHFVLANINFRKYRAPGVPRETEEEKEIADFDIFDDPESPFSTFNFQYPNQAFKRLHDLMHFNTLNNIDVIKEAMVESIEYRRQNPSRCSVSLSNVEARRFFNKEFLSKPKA
Test: Coumarin Assay (cPLA2 inhibition)
Type: biochemical
Conditions: for inhibition at 0.4 µM: read-out: PERCENT INHIBITION @; for inhibition at 2.5 µM: Conc 2.5 uM; for inhibition at 3 µM: Conc 3 uM; for inhibition at 3.3 µM: Conc 3.3 uM
Outline: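 Percent inhibition at the stated concentration, from the rate of 460 nm emission rise (360 nm excitation) per minute. Reaction started by adding 4 μg enzyme to compound and 60 μM 7-hydroxycoumarinyl 6-heptenoate in Hepes buffer pH 7.5 with 1 mM EDTA.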

Compound: COc1cc(C(=O)O)ccc1Cc1cn(C(c2ccccc2)c2ccc(N)cc2)c2cc(Cl)ccc12 (stereo not drawn) [Example 132, ′4-({1-[(4-aminophenyl)(phenyl)methyl]-6-chloro-1H-indol-3-yl}methyl)-3-methoxybenzoic acid]
PERCENT INHIBITION @ (CONCENTRATION 0.4 micromolar): 50%

Compound: COc1ccc(C(c2ccccc2)n2cc(Cc3ccc(C(=O)O)cc3OC)c3ccc(Cl)cc32)cc1 (stereo not drawn) [Example 133, ′4-({6-chloro-1-[(4-methoxyphenyl)(phenyl)methyl]-1H-indol-3-yl}methyl)-3-methoxybenzoic acid]
PERCENT INHIBITION @ (CONCENTRATION 0.3 micromolar): 50%

Compound: COc1cc(C(=O)O)ccc1Cc1cn(C(c2ccccc2)c2ccccc2N2CCOCC2)c2cc(Cl)ccc12 (stereo not drawn) [Example 135, ′4-({6-chloro-1-[(2-morpholinophenyl)(phenyl)methyl]-1H-indol-3-yl}methyl)-3-methoxybenzoic acid]
PERCENT INHIBITION @ (CONCENTRATION 0.7 micromolar): 50%

Compound: Cc1c(CCS(=O)(=O)c2ccc(C(=O)O)cc2)c2cc(F)ccc2n1C(c1ccccc1)c1ccccc1 [Example 139, 4-{[2-(1-benzhydryl-5-fluoro-2-methyl-1H-indol-3-yl)ethyl]sulfonyl}benzoic acid]
inhibition at 1.6 µM (Conc 1.6 uM, read-out: % Inhibition): 50%

Compound: Cc1c(CCS(=O)(=O)c2ccc(C(=O)O)cc2)c2c(Cl)c(Cl)ccc2n1C(c1ccccc1)c1ccccc1 [Example 141, 4-{[2-(1-benzhydryl-4,5-dichloro-2-methyl-1H-indol-3-yl)ethyl]sulfonyl}benzoic acid]
inhibition at 1.4 µM (Conc 1.4 uM, read-out: % Inhibition): 50%

Compound: Cc1c(CCS(=O)(=O)c2ccc(C(=O)O)cc2)c2cc(Cl)c(Cl)cc2n1C(c1ccccc1)c1ccccc1 [Example 142]
% Inhibition (Conc 1.4 uM): 50%

Compound: Cc1c(CCS(=O)(=O)c2ccc(C(=O)O)cc2)c2ccccc2n1C(c1ccccc1)c1ccccc1 [Example 143, 4-{[2-(1-benzhydryl-2-methyl-1H-indol-3-yl)ethyl]sulfonyl}benzoic acid]
inhibition at 3 µM (read-out: % Inhibition): 50%

Compound: COc1ccc2c(c1)c(CCS(=O)(=O)c1ccc(C(=O)O)cc1)c(C)n2C(c1ccccc1)c1ccccc1 [Example 144, 4-{[2-(1-benzhydryl-5-methoxy-2-methyl-1H-indol-3-yl)ethyl]sulfonyl}benzoic acid]
inhibition at 12 µM (Conc 12 uM, read-out: % Inhibition): 50%

Compound: Cc1c(CCSc2ccc(C(=O)O)cc2)c2cc(Cl)ccc2n1C(c1ccccc1)c1ccccc1 [Example 146, 4-{[2-(1-benzhydryl-5-chloro-2-methyl-1H-indol-3-yl)ethyl]sulfany}benzoic acid]
% Inhibition (Conc 1.6 uM): 50%

Compound: O=C(O)c1ccc(OCCc2c(CS(=O)(=O)c3ccccc3)n(C(c3ccccc3)c3ccccc3)c3ccc(Cl)cc23)cc1 [Example 153, 4-(2-{1-benzhydryl-5-chloro-2-[(phenylsulfonyl)methyl]-1H-indol-3-yl}ethoxy)benzoic acid]
inhibition at 3 µM (read-out: % Inhibition): 50%

Compound: O=C(O)c1ccc(OCCc2c(COCc3ccccc3[N+](=O)[O-])n(C(c3ccccc3)c3ccccc3)c3ccc(Cl)cc23)cc1 [Example 155, 4-[2-(1-benzhydryl-5-chloro-2-{[(2-nitrobenzyl)oxy]methyl}-1H-indol-3-yl)ethoxy]benzoic acid]
inhibition at 2.2 µM (Conc 2.2 uM, read-out: % Inhibition): 50%

Compound: O=C(O)c1ccc(OCCc2c(COCc3c(F)cccc3F)n(C(c3ccccc3)c3ccccc3)c3ccc(Cl)cc23)cc1 [Example 156, 4-[2-(1-benzhydryl-5-chloro-2-{[(2,6-difluorobenzyl)oxy]methyl}-1H-indol-3-yl)ethoxy]benzoic acid]
inhibition at 1 µM (Conc 1 uM, read-out: % Inhibition): 50%

Compound: O=C(O)c1ccc(S(=O)(=O)CCc2c(CO)n(C(c3ccccc3)c3ccccc3)c3ccc(Cl)cc23)cc1 [Example 157, 4-({2-[1-benzhydryl-5-chloro-2-(hydroxymethyl)-1H-indol-3-yl]ethyl}sulfonyl)benzoic acid]
inhibition at 3.8 µM (Conc 3.8 uM, read-out: % Inhibition): 50%

Compound: O=C(O)c1ccc(OCCc2c(COCc3ccccn3)n(C(c3ccccc3)c3ccccc3)c3ccc(Cl)cc23)cc1 [Example 158, 4-(2-{1-benzhydryl-5-chloro-2-[(2-pyridinylmethoxy)methyl]-1H-indol-3-yl}ethoxy)benzoic acid]
inhibition at 1.7 µM (Conc 1.7 uM): 50%

Compound: O=C(O)c1ccc(OCCc2c(COCc3ccncc3)n(C(c3ccccc3)c3ccccc3)c3ccc(Cl)cc23)cc1 [Example 159, 4-(2-{1-benzhydryl-5-chloro-2-[(4-pyridinylmethoxy)methyl]-1H-indol-3-yl}ethoxy)benzoic acid]
inhibition at 4.2 µM (Conc 4.2 uM, read-out: % Inhibition): 50%

Compound: O=C(O)c1ccc(OCCc2c(COCc3ccccc3)n(C(c3ccccc3)c3ccccc3)c3ccc(Cl)cc23)cc1 [Example 160, 4-(2-{1-benzhydryl-2-[(benzyloxy)methyl]-5-chloro-1H-indol-3-yl}ethoxy)benzoic acid]
inhibition at 2 µM (Conc 2 uM, read-out: % Inhibition): 50%

Compound: O=C(O)c1ccc(OCCc2c(COCc3ccc(F)cc3)n(C(c3ccccc3)c3ccccc3)c3ccc(Cl)cc23)cc1 [Example 161, 4-[2-(1-benzhydryl-5-chloro-2-{[(4-fluorobenzyl)oxy]methyl}-1H-indol-3-yl)ethoxy]benzoic acid]
inhibition at 1.8 µM (Conc 1.8 uM, read-out: % Inhibition): 50%

Next, values leading:

PERCENT INHIBITION @ (CONCENTRATION 0.8 micromolar): 50%
Compound: COc1ccc(C(c2ccc(OC)cc2)n2cc(Cc3ccc(C(=O)O)cc3OC)c3ccc(Cl)cc32)cc1 [Example 134, ′4-({1-[bis(4-methoxyphenyl)methyl]-6-chloro-1H-indol-3-yl}methyl)-3-methoxybenzoic acid]

inhibition at 0.4 µM (CONCENTRATION 0.4 micromolar): 50%
Compound: COc1ncc(C(c2ccccc2)n2cc(Cc3ccc(C(=O)O)cc3OC)c3ccc(Cl)cc32)c(OC)n1 (stereo not drawn) [Example 136, 4-({6-chloro-1-[(2,4-dimethoxy-5-pyrimidinyl)(phenyl)methyl]-1H-indol-3-yl}methyl)-3-methoxybenzoic acid]

PERCENT INHIBITION @ (CONCENTRATION 0.8 micromolar): 50%
Compound: COc1cc(C(=O)O)ccc1Cc1cn(C(c2ccccc2)c2ccccc2)c2cc(Cl)ccc12 [Example 137, ′4-[(1-benzhydryl-6-chloro-1H-indol-3-yl)methyl]-3-methoxybenzoic acid]

inhibition at 0.4 µM (CONCENTRATION 0.4 micromolar): 50%
Compound: COc1cc(C(=O)NCC(=O)O)ccc1Cc1cn(C(c2ccccc2)c2ccccc2)c2cc(Cl)ccc12 [Example 138, 2-({4-[(1-benzhydryl-6-chloro-1H-indol-3-yl)methyl]-3-methoxybenzoyl}amino)acetic acid]

inhibition at 2.5 µM (read-out: % Inhibition): 50%
Compound: Cc1c(CCS(=O)(=O)c2ccc(C(=O)O)cc2)c2ccc(Cl)cc2n1C(c1ccccc1)c1ccccc1 [Example 140, 4-{[2-(1-benzhydryl-6-chloro-2-methyl-1H-indol-3-yl)ethyl]sulfonyl}benzoic acid]

inhibition at 2.6 µM (Conc 2.6 uM): 50%
Compound: Cc1c(CCOc2ccc(C(=O)O)cc2)c2cc(Br)ccc2n1C(c1ccccc1)c1ccccc1 [Example 145, 4-[2-(1-benzhydryl-5-bromo-2-methyl-1H-indol-3-yl)ethoxy]benzoic acid]

inhibition at 2.4 µM (Conc 2.4 uM, read-out: % Inhibition): 50%
Compound: Cc1c(CCS(=O)(=O)c2ccc(C(=O)O)cc2)c2cc(Cl)ccc2n1C(c1ccccc1)c1ccccc1 [Example 147, 4-{[2-(1-benzhydryl-5-chloro-2-methyl-1H-indol-3-yl)ethyl]sulfonyl}benzoic acid]

inhibition at 2.8 µM (Conc 2.8 uM): 50%
Compound: Cc1c(CC[S+]([O-])c2ccc(C(=O)O)cc2)c2cc(Cl)ccc2n1C(c1ccccc1)c1ccccc1 (stereo not drawn) [Example 148, 4-{[2-(1-benzhydryl-5-chloro-2-methyl-1H-indol-3-yl)ethyl]sulfinyl}benzoic acid]

inhibition at 2.5 µM (read-out: % Inhibition): 50%
Compound: Cc1c(CCOc2ccc(C(=O)O)cc2)c2cc(Cl)ccc2n1C(c1ccccc1)c1ccccc1 [Example 149, 4-[2-(1-benzhydryl-5-chloro-2-methyl-1H-indol-3-yl)ethoxy]benzoic acid]

inhibition at 2.5 µM (read-out: % Inhibition): 50%
Compound: O=Cc1c(CCOc2ccc(C(=O)O)cc2)c2cc(Cl)ccc2n1C(c1ccccc1)c1ccccc1 [Example 150, 4-[2-(1-benzhydryl-5-chloro-2-formyl-1H-indol-3-yl)ethoxy]benzoic acid]

inhibition at 3.3 µM: 50%
Compound: O=C(O)c1ccc(OCCc2c(CO)n(C(c3ccccc3)c3ccccc3)c3ccc(Cl)cc23)cc1 [Example 151, 4-{2-[1-benzhydryl-5-chloro-2-(hydroxymethyl)-1H-indol-3-yl]ethoxy}benzoic acid]

inhibition at 3.3 µM: 50%
Compound: COCc1c(CCOc2ccc(C(=O)O)cc2)c2cc(Cl)ccc2n1C(c1ccccc1)c1ccccc1 [Example 152, 4-{2-[1-benzhydryl-5-chloro-2-(methoxymethyl)-1H-indol-3-yl]ethoxy}benzoic acid]

inhibition at 5.5 µM (Conc 5.5 uM, read-out: % Inhibition): 50%
Compound: CS(=O)(=O)Cc1c(CCOc2ccc(C(=O)O)cc2)c2cc(Cl)ccc2n1C(c1ccccc1)c1ccccc1 [Example 154, 4-(2-{1-benzhydryl-5-chloro-2-[(methylsulfonyl)methyl]-1H-indol-3-yl}ethoxy)benzoic acid]
